pIC50: −log10 of the molar value. Like-named read-outs stand apart in the source and are kept apart here.
Legend:
human TLR7 = human TLR7 (Homo sapiens (Human), UniProt Q9NYK1); assay: TLR7 inhibition reporter assay (HEK-Blue cells, SEAP reporter, gardiquimod stimulation); format: cell-based
human TLR9 = human TLR9 (Homo sapiens (Human), UniProt Q9NR96); assay: TLR9 inhibition reporter assay (HEK-Blue cells, SEAP reporter, ODN2006 stimulation);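 further: compounds tested over 0.05 nM to 50 µM, 22 h incubation, inhibition taken as SEAP signal drop from agonist plus DMSO wells toward a known inhibitor control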
human TLR8 = human TLR8 (Homo sapiens (Human), UniProt Q9NR97); assay: TLR8 inhibition reporter assay (HEK-Blue cells, SEAP reporter, R848 stimulation);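 further: compounds tested from 0.05 nM to 50 µM, 22 h at 37 °C, SEAP measured with HEK-Blue Detection, inhibition relative to agonist plus DMSO versus a known inhibitor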
[1] = HEK-Blue cells overexpressing human TLR7, gardiquimod 7.5 μM
[2] = read-out: TLR9 IC50, HEK-Blue cells overexpressing human TLR9, ODN2006 5 nM
[3] = read-out: TLR8 IC50, HEK-Blue cells overexpressing human TLR8, R848 15.9 μM
[4] = TLR9 IC50, HEK-Blue cells overexpressing human TLR9, ODN2006 5 nM
[5] = TLR8 IC50, HEK-Blue cells overexpressing human TLR8, R848 15.9 μM
[6] = HEK-Blue cells, gardiquimod 7.5 μM
[7] = read-out: TLR9 IC50, HEK-Blue cells, ODN2006 5 nM
[8] = read-out: TLR8 IC50, HEK-Blue cells, R848 15.9 μM

Chain of human TLR8 (Q9NR97 27-1041): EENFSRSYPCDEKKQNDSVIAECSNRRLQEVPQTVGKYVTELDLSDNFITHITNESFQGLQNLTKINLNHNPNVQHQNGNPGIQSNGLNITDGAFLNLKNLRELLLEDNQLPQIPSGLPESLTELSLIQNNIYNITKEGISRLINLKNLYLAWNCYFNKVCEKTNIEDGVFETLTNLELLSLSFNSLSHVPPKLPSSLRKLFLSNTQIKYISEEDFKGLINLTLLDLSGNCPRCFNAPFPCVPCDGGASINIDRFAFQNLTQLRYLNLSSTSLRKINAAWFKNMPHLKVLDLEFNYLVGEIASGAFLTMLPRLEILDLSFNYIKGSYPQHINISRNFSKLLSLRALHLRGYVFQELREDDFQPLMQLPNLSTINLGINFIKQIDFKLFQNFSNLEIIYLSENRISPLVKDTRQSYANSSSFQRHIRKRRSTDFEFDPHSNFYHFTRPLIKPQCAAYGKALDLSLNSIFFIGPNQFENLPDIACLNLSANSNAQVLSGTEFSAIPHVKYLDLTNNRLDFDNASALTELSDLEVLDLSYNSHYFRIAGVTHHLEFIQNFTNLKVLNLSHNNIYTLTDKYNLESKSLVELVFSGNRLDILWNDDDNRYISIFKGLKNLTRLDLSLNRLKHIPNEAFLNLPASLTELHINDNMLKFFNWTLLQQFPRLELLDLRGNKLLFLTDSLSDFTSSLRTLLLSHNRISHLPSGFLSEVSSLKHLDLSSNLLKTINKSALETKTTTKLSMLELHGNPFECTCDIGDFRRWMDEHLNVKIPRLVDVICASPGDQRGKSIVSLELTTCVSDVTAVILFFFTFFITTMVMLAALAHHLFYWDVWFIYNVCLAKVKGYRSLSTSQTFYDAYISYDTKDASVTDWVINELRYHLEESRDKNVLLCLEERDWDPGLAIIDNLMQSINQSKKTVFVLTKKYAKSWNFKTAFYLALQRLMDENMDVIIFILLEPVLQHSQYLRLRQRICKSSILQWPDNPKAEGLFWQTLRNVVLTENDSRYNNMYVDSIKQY
Chain of human TLR9 (Q9NR96 26-1032): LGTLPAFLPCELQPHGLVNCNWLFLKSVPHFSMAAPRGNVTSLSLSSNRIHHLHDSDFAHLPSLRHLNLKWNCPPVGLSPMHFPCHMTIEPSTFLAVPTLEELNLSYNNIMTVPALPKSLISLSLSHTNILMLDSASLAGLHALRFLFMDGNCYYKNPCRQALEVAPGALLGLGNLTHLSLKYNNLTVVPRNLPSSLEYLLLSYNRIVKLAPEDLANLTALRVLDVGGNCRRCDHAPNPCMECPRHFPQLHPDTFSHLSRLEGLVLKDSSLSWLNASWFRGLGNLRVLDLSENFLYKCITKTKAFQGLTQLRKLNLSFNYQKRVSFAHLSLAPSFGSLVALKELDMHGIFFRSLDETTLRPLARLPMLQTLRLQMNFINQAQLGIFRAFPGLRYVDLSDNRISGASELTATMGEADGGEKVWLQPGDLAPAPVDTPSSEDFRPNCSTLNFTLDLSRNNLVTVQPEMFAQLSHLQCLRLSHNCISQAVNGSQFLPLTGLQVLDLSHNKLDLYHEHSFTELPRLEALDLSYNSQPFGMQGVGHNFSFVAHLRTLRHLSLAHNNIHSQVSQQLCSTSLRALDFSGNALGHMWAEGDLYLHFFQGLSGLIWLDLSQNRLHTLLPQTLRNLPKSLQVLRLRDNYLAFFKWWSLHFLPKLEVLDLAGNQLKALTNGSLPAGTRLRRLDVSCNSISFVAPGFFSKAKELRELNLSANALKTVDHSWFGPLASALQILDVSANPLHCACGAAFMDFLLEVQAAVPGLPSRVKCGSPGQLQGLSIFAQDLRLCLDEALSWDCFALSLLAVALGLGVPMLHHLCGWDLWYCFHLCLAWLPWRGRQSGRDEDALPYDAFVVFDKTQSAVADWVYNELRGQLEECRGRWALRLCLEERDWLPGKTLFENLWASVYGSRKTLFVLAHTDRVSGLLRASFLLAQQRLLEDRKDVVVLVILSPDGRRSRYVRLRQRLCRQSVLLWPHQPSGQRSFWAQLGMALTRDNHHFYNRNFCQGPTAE
Chain of human TLR7 (Q9NYK1 27-1049): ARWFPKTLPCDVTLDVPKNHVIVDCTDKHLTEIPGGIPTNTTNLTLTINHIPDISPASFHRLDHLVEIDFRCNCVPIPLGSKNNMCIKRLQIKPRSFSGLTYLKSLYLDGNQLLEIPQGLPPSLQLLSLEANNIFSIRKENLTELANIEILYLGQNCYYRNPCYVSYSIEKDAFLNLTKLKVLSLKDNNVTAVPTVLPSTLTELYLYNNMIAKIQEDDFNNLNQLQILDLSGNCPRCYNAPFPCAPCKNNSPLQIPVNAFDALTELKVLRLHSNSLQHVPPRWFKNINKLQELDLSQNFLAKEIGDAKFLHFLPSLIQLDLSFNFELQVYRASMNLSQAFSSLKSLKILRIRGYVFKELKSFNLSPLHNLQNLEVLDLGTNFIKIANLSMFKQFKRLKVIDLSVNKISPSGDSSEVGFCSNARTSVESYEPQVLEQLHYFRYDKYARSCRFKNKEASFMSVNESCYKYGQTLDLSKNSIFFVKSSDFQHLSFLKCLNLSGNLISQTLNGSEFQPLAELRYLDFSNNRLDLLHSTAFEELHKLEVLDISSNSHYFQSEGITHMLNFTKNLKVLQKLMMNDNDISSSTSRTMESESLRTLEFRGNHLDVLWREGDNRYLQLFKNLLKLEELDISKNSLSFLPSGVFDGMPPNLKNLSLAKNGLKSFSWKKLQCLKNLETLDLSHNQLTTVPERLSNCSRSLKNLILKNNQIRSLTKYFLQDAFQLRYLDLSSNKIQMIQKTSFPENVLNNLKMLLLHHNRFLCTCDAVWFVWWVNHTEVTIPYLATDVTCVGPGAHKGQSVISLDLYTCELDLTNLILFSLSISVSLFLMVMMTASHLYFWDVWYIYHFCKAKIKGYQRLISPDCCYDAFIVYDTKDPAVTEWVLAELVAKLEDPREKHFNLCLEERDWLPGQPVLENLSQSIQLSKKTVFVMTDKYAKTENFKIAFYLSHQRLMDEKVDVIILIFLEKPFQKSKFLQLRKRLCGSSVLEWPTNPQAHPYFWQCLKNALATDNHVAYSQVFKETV

`CC(C)c1c(-c2ccnc(F)c2)[nH]c2ccc(C3CCN(C(=O)CN(C)C)CC3)cc12` [Example 522, 2-(dimethylamino)-1-(4-(2-(2-fluoropyridin-4-yl)-3-isopropyl-1H-indol-5-yl)piperidin-1-yl)ethan-1-one] was tested. Which pIC50 (human TLR7; [1]) did it give?
The pIC50 was 7.63.

And the pIC50 (human TLR9; [2])?
Its pIC50 is 5.70.

What about the pIC50 (human TLR8; [3]) of the same compound?
The pIC50 was 7.32.

With `CCC(C)CN(CCO)CC(=O)N1CCC(c2ccc3[nH]c(-c4cc(C)nc(C)c4)c(C(C)C)c3c2)CC1` (stereo not drawn) [Example 406, 1-(4-(2-(2,6-dimethylpyridin-4-yl)-3-isopropyl-1H-indol-5-yl)piperidin-1-yl)-2-((2-hydroxyethyl)(2-methylbutyl)amino)ethan-1-one] as the compound, how does the pIC50 (human TLR7; [1]) read?
Its pIC50 is 8.11.

And the pIC50 (human TLR9; [2])?
Its pIC50 is 5.97.

And the pIC50 (human TLR8; [3])?
The pIC50 was 7.13.

How did the pIC50 (human TLR7; [1]) turn out when `Cc1cc(-c2[nH]c3ccc(C4CCN(C(=O)C5CC(=O)N(C)C5)CC4)cc3c2C(C)C)cc(C)n1` (stereo not drawn) [Example 100, 4-(4-(2-(2,6-dimethylpyridin-4-yl)-3-isopropyl-1H-indol-5-yl)piperidine-1-carbonyl)-1-methylpyrrolidin-2-one] was run?
The pIC50 was 8.10.

And the pIC50 (human TLR9; [4])?
Its pIC50 is 4.65.

What about the pIC50 (human TLR8; [5]) of the same compound?
The pIC50 was 7.20.

Which results are given for `CNCC(=O)N1CCC(c2ccc3[nH]c(-c4cc(C5CC5)ncc4F)c(C(C)C)c3c2)CC1` [Example 518, 1-(4-(2-(2-cyclopropyl-5-fluoropyridin-4-yl)-3-isopropyl-1H-indol-5-yl)piperidin-1-yl)-2-(methylamino)ethan-1-one]?
pIC50 (human TLR7; [1]): 7.82; pIC50 (human TLR9; [2]): 5.79; pIC50 (human TLR8; [3]): 6.59

Which results are given for `Cc1cc(-c2[nH]c3ccc(C4CCN(C(=O)CN(CCO)Cc5ccccc5)CC4)cc3c2C(C)C)cc(C)n1` [Example 396, 2-(benzyl(2-hydroxyethyl)amino)-1-(4-(2-(2,6-dimethylpyridin-4-yl)-3-isopropyl-1H-indol-5-yl)piperidin-1-yl)ethan-1-one]?
pIC50 (human TLR7; [1]): 8.36; pIC50 (human TLR9; [2]): 5.80; pIC50 (human TLR8; [3]): 7.26

With `Cc1cc(-c2[nH]c3ccc(C4CCN(CC5CCN(C(C)C)C5)CC4)cc3c2C(C)C)cc(C)n1` (stereo not drawn) [Example 465, 2-(2,6-dimethylpyridin-4-yl)-3-isopropyl-5-(1-((1-isopropylpyrrolidin-3-yl)methyl)piperidin-4-yl)-1H-indole] as the compound, how does the pIC50 (human TLR7; [1]) read?
Its pIC50 is 8.15.

What about the pIC50 (human TLR9; [2]) of the same compound?
The pIC50 was 6.83.

And the pIC50 (human TLR8; [3])?
Its pIC50 is 8.33.

With `COc1c(-c2[nH]c3ccc(C4CCNCC4)cc3c2C(C)C)cc[n+]([O-])c1C` [Example 57] as the compound, how does the pIC50 (human TLR7; [1]) read?
The pIC50 was 6.31.

What about the pIC50 (human TLR9; [2]) of the same compound?
The pIC50 was 5.75.

And the pIC50 (human TLR8; [3])?
The pIC50 was 6.55.

How did the pIC50 (human TLR7; [1]) turn out when `COc1cc(-c2[nH]c3ccc(C4CCN(CC(F)(F)F)CC4)cc3c2C(C)C)ccn1` [Example 639, 3-isopropyl-2-(2-methoxypyridin-4-yl)-5-(1-(2,2,2-trifluoroethyl)piperidin-4-yl)-1H-indole] was run?
Its pIC50 is 5.51.

And the pIC50 (human TLR9; [2])?
Its pIC50 is 4.71.

And the pIC50 (human TLR8; [3])?
Its pIC50 is 4.87.

How did the pIC50 (human TLR7; [1]) turn out when `Cc1cc(-c2[nH]c3ccc(C4CCN(C(=O)C5CCOC(C(C)C)C5)CC4)cc3c2C(C)C)cc(C)n1` (stereo not drawn) [Example 200, (4-(2-(2,6-dimethylpyridin-4-yl)-3-isopropyl-1H-indol-5-yl)piperidin-1-yl)(2-isopropyltetrahydro-2H-pyran-4-yl) methanone] was run?
Its pIC50 is 7.35.

What about the pIC50 (human TLR9; [2]) of the same compound?
The pIC50 was 4.95.

What about the pIC50 (human TLR8; [3]) of the same compound?
Its pIC50 is 6.39.

`CCc1c(-c2ccncc2)[nH]c2ccc(C3CCN(Cc4cnc(Nc5ccccn5)s4)CC3)cc12` [Example 822, 5-((4-(3-ethyl-2-(pyridin-4-yl)-1H-indol-5-yl)piperidin-1-yl)methyl)-N-(pyridin-2-yl)thiazol-2-amine] was tested. Which pIC50 (human TLR7; [6]) did it give?
The pIC50 was 6.08.

What about the pIC50 (human TLR9; [7]) of the same compound?
Its pIC50 is 5.96.

And the pIC50 (human TLR8; [8])?
The pIC50 was 4.89.

How did the pIC50 (human TLR7; [1]) turn out when `Cc1cc(-c2[nH]c3ccc(C4CCN(CC(=O)N5CCS(=O)(=O)CC5)CC4)cc3c2C(C)C)cc(C)n1` [Example 281, 2-(4-(2-(2,6-dimethylpyridin-4-yl)-3-isopropyl-1H-indol-5-yl)piperidin-1-yl)-1-(1,1-dioxidothiomorpholino)ethan-1-one] was run?
The pIC50 was 8.92.

What about the pIC50 (human TLR9; [2]) of the same compound?
Its pIC50 is 6.89.

What about the pIC50 (human TLR8; [3]) of the same compound?
Its pIC50 is 8.70.

With `Cc1cc(-c2[nH]c3ccc(C4CCN(CC5CCN(C(C)C)CC5)CC4)c(F)c3c2C(C)C)ccn1` [Example 874, 4-fluoro-3-isopropyl-5-(1-((1-isopropylpiperidin-4-yl)methyl)piperidin-4-yl)-2-(2-methylpyridin-4-yl)-1H-indole] as the compound, how does the pIC50 (human TLR7; [6]) read?
Its pIC50 is 7.81.

What about the pIC50 (human TLR9; [7]) of the same compound?
The pIC50 was 6.35.

And the pIC50 (human TLR8; [8])?
Its pIC50 is 7.47.

What does the source list for `CCN(CC)CC(=O)N1CCC(c2ccc3[nH]c(-c4cc(C)nc(C)c4)c(C(C)C)c3c2)CC1` [Example 99, 2-(diethylamino)-1-(4-(2-(2,6-dimethylpyridin-4-yl)-3-isopropyl-1H-indol-5-yl)piperidin-1-yl)ethan-1-one]?
pIC50 (human TLR7; [1]): 8.51; pIC50 (human TLR9; [2]): 6.30; pIC50 (human TLR8; [3]): 7.89

With `Cc1cc(-c2[nH]c3ccc(C4CCN(C(C)C)CC4)cc3c2CC(F)F)cc(C)n1` [Example 536, 3-(2,2-difluoroethyl)-2-(2,6-dimethylpyridin-4-yl)-5-(1-isopropylpiperidin-4-yl)-1H-indole] as the compound, how does the pIC50 (human TLR7; [1]) read?
Its pIC50 is 7.92.

And the pIC50 (human TLR9; [2])?
Its pIC50 is 6.91.

What about the pIC50 (human TLR8; [3]) of the same compound?
Its pIC50 is 7.69.

What does the source list for `Cc1cc(-c2[nH]c3ccc(C4CCN(CC(=O)N5CC[C@H](O)C5)CC4)cc3c2C(C)C)cc(C)n1` [Example 273, (S)-2-(4-(2-(2,6-dimethylpyridin-4-yl)-3-isopropyl-1H-indol-5-yl)piperidin-1-yl)-1-(3-hydroxypyrrolidin-1-yl)ethan-1-one]?
pIC50 (human TLR7; [1]): 8.82; pIC50 (human TLR9; [4]): 7.18; pIC50 (human TLR8; [5]): 8.27

`Cc1cc(-c2[nH]c3ccc(C4CCN(C(=O)c5ccon5)CC4)cc3c2C(C)C)ccn1` [Example 604, (4-(3-isopropyl-2-(2-methylpyridin-4-yl)-1H-indol-5-yl)piperidin-1-yl)(isoxazol-3-yl)methanone] was tested. Which pIC50 (human TLR7; [1]) did it give?
Its pIC50 is 7.60.

And the pIC50 (human TLR9; [2])?
Its pIC50 is 4.64.

What about the pIC50 (human TLR8; [3]) of the same compound?
The pIC50 was 6.72.

With `Cc1cc(-c2[nH]c3ccc(C4CCN(C(=O)CS(C)(=O)=O)CC4)cc3c2C(C)C)ccn1` [Example 608, 1-(4-(3-isopropyl-2-(2-methylpyridin-4-yl)-1H-indol-5-yl)piperidin-1-yl)-2-(methylsulfonyl)ethan-1-one] as the compound, how does the pIC50 (human TLR7; [1]) read?
Its pIC50 is 7.29.

And the pIC50 (human TLR9; [2])?
The pIC50 was 5.73.

What about the pIC50 (human TLR8; [3]) of the same compound?
Its pIC50 is 6.73.

How did the pIC50 (human TLR7; [6]) turn out when `Cc1cc(-c2[nH]c3ccc(C4CCN(CC(O)C(C)C)CC4)cc3c2C(C)C)cc(C)n1` (stereo not drawn) [Example 855, 1-(4-(2-(2,6-dimethylpyridin-4-yl)-3-isopropyl-1H-indol-5-yl)piperidin-1-yl)-3-methylbutan-2-ol] was run?
The pIC50 was 7.68.

What about the pIC50 (human TLR9; [7]) of the same compound?
The pIC50 was 5.48.

What about the pIC50 (human TLR8; [8]) of the same compound?
The pIC50 was 8.82.

With `Cc1cc(-c2[nH]c3ccc(C4CCN(C(=O)[C@@H]5C[C@H](F)CN5)CC4)cc3c2C(C)C)cc(C)n1` [Example 196, (4-(2-(2,6-dimethylpyridin-4-yl)-3-isopropyl-1H-indol-5-yl)piperidin-1-yl)((2S,4S)-4-fluoropyrrolidin-2-yl)methanone] as the compound, how does the pIC50 (human TLR7; [1]) read?
The pIC50 was 8.92.

And the pIC50 (human TLR9; [2])?
The pIC50 was 6.71.

What about the pIC50 (human TLR8; [3]) of the same compound?
Its pIC50 is 7.79.

How did the pIC50 (human TLR7; [1]) turn out when `Cc1cc(-c2[nH]c3ccc(C4CCNCC4)cc3c2C2CC2)ccn1` [Example 88, 3-cyclopropyl-2-(2-methylpyridin-4-yl)-5-(piperidin-4-yl)-1H-indole] was run?
Its pIC50 is 7.92.

What about the pIC50 (human TLR9; [2]) of the same compound?
Its pIC50 is 7.15.

What about the pIC50 (human TLR8; [3]) of the same compound?
Its pIC50 is 8.15.

How did the pIC50 (human TLR7; [1]) turn out when `CCN(CCO)C(=O)CN1CCC(c2ccc3[nH]c(-c4cc(C)nc(C)c4)c(C(C)C)c3c2)CC1` [Example 294, 2-(4-(2-(2,6-dimethylpyridin-4-yl)-3-isopropyl-1H-indol-5-yl)piperidin-1-yl)-N-ethyl-N-(2-hydroxyethyl)acetamide] was run?
The pIC50 was 7.85.

What about the pIC50 (human TLR9; [2]) of the same compound?
Its pIC50 is 5.73.

What about the pIC50 (human TLR8; [3]) of the same compound?
Its pIC50 is 7.23.

— US10660877B2 (BRISTOL-MYERS SQUIBB COMPANY, priority 2016, dated 2020)
